Results reported in ChEMBL document CHEMBL6092176, “Discovery of pyrazolo[1,5-a]pyrimidine derivatives targeting TLR4-TLR4∗ homodimerization via AI-powered next-generation screening” (Eur J Med Chem, 2024).
Several values for one entry are separate records, joined by “and”; a condition that tells them apart may be missing. Equal values may be shown once. Activity calls are given as the source filed them. No cut-off for these calls is given here.

Tests used:
[1] = target: T1, Toll-like receptor 4 (Homo sapiens, UniProt O00206); experiment: Inhibition of human TLR4 in LPS-stimulated HEK-Blue hTLR4 cells assessed as reduction in SEAP activity incubated for 24 hrs by microplate reader assay; format: cell-based
[2] = Cytotoxicity against HEK-Blue hTLR4 cells incubated for 24 hrs by CCK8 assay; format: toxicity, cell-based; conditions: human
[3] = target: T1, Toll-like receptor 4; experiment: Inhibition of TLR4 (unknown origin) homodimerization
[4] = Inhibition of TLR4 to MD2 (unknown origin) protein-protein interaction; design: species or system Homo sapiens
[5] = tested on: Mus musculus; experiment: Antiinflammatory activity in LPS-induced C57BL/6 mouse sepsis model assessed as reduction in TNFalpha mRNA expression at 5 mg/kg, ip preadministered with compound for 1 hr followed by LPS stimulation and measured after 15 hrs by RT-qPCR analysis; format: functional, organism-based; conditions: time 16.0 hrs
[6] = Half-life in C57BL/6 mouse at 10 mg/kg, ip measured upto 24 hrs; format: ADME, organism-based; conditions: in vivo
[7] = Tmax in C57BL/6 mouse at 10 mg/kg, ip measured upto 24 hrs; format: ADME, organism-based; conditions: in vivo
[8] = Cmax in C57BL/6 mouse at 10 mg/kg, ip measured upto 24 hrs; format: ADME, organism-based; conditions: in vivo
[9] = AUC(0 to t) in C57BL/6 mouse at 10 mg/kg, ip measured upto 24 hrs; format: ADME, organism-based; conditions: in vivo
[10] = MRT(0 to t) in C57BL/6 mouse at 10 mg/kg, ip measured upto 24 hrs; format: ADME, organism-based; conditions: in vivo
[11] = Apparent volume of distribution in C57BL/6 mouse at 10 mg/kg, ip measured upto 24 hrs; format: ADME, organism-based; conditions: in vivo
[12] = Clearance in C57BL/6 mouse at 10 mg/kg, ip measured upto 24 hrs; format: ADME, organism-based; conditions: in vivo
[13] = tested on: Mus musculus; experiment: Antiinflammatory activity in LPS-induced C57BL/6 mouse sepsis model assessed as survival rate at 10 mg/kg, ip preadministered with compound for 1 hr followed by LPS stimulation and measured after 24 hrs; format: functional; conditions: time 25 hrs

T1 sequence (O00206 whole entry): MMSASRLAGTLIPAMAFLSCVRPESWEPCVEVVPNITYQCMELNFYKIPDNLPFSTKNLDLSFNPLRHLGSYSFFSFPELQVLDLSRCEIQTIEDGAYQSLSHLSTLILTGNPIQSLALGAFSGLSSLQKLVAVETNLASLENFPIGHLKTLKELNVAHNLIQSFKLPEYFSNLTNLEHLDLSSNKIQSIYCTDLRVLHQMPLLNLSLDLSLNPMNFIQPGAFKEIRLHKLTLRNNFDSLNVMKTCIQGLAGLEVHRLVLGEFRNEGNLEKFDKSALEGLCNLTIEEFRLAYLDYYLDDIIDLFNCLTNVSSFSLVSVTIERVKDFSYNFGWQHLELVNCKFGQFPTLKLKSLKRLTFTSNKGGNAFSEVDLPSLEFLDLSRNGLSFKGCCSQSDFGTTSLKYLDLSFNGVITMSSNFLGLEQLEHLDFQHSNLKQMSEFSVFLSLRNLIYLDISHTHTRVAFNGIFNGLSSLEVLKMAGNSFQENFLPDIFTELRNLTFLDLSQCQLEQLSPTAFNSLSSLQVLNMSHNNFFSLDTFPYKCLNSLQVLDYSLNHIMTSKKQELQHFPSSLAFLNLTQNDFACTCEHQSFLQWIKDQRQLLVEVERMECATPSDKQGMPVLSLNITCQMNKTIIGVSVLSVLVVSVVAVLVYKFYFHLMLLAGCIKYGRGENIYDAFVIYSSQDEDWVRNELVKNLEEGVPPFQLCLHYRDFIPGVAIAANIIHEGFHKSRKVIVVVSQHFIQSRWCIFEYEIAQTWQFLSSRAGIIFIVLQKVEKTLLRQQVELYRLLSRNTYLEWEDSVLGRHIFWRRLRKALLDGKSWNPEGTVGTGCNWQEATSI

Compound | IC50 [1] | IC50 at 24 h [2] [µM] | further results
CC(C)(C)OC(=O)N1CCN(C(=O)c2cnn3c(C(F)F)cc(-c4ccc(Cl)cc4)nc23)CC1 | > 50 µM | > 50 | 
NC1CCN(C(=O)c2cnn3c(C(F)F)cc(-c4ccc(Cl)cc4)nc23)CC1 | > 50 µM | > 50 | 
O=C(c1cnn2c(C(F)F)cc(-c3ccc(Cl)cc3)nc12)N1CCC2(CCCCC2)CC1 | > 50 µM | > 50 | 
FC(F)c1cc(-c2ccc(Cl)cc2)nc2cc(C(=S)N3C[C@H]4CCCC[C@H]4C3)nn12 | > 50 µM | > 50 | 
Cc1ccc(-c2cc(C(F)F)n3ncc(C(=O)N4CCC5(CC4)OCCO5)c3n2)cc1 | 14 µM | > 50 | IC50 [3]: 14 µM
CCOc1ccc(OCC(O)CN(C)Cc2c(C)nn(Cc3ccccc3Cl)c2C)cc1 (stereo not drawn) |  |  | IC50 [4]: 48.1 µM
C[C@@H]1C[C@H]2[C@@H]3CCC4=CC(=O)C=C[C@]4(C)[C@@]3(F)[C@@H](O)C[C@]2(C)[C@@]1(O)C(=O)CO |  |  | Activity [5]: inactive
O=C(c1cnn2c(C(F)F)cc(-c3ccc(F)cc3)nc12)N1CCC2(CC1)OCCO2 | > 50 µM | > 50 | 
O=C(c1cnn2c(C(F)F)cc(-c3ccc(Br)cc3)nc12)N1CCC2(CC1)OCCO2 | > 50 µM | > 50 | 
O=C(c1cnn2c(C(F)F)cc(-c3ccc(Cl)cc3)nc12)N1CCSCC1 | > 50 µM | > 50 | 
CN1CCN(C(=O)c2cnn3c(C(F)F)cc(-c4ccc(Cl)cc4)nc23)CC1 | 30.6 µM | > 50 | 
O=C(c1cnn2c(C(F)F)cc(-c3ccc(Cl)cc3)nc12)N1CCC2(CC1)OCCO2 | 4.94 µM | > 50 | 
COc1ccc(-c2cc(C(F)F)n3ncc(C(=O)N4CCC5(CC4)OCCO5)c3n2)cc1OC | > 50 µM | > 50 | 
O=C(c1cnn2c(C(F)(F)F)cc(-c3ccc(Cl)cc3)nc12)N1CCC2(CC1)OCCO2 | > 50 µM | > 50 | 
CCOC(=O)C1=CCCC[C@H]1S(=O)(=O)Nc1ccc(F)cc1Cl [RESATORVID] | 0.047 µM and 0.06 µM | > 50 | 
O=C(c1cnn2c(C(F)F)cc(C34CC5CC(CC(C5)C3)C4)nc12)N1C[C@H]2CCCC[C@H]2C1 | > 50 µM | > 50 | 
Cc1ccc(-c2cc(C(F)(F)F)n3ncc(C(=O)N4CCC5(CC4)OCCO5)c3n2)cc1 | > 50 µM | > 50 | 
O=C(Oc1ccnc2c(Br)cccc12)c1cnn2c(C(F)F)cc(-c3ccc(Cl)cc3)nc12 | 15.5 µM | > 50 | 
O=C(c1cnn2c(C(F)F)cc(-c3ccc(Cl)cc3)nc12)N1C[C@H]2CCCC[C@H]2C1 |  |  | t1/2 [6]: 2.74 h; Tmax [7]: 0.333 h; Cmax [8]: 760 ng/mL; AUCt [9]: 1560 ng·h/mL; MRT last at 24 h [10]: 2.55 h; Vz [11]: 25.4 L/kg; CL [12]: 107 mL/min/kg; survival at 10 mg/kg [13]: 60%
O=C(c1cnn2c1NC(c1ccc(Cl)cc1)CC2C(F)F)N1C[C@H]2CCCC[C@H]2C1 (stereo partly drawn) | > 50 µM | > 50 | 
CC(=O)N1CCN(C(=O)c2cnn3c(C(F)F)cc(-c4ccc(Cl)cc4)nc23)CC1 | > 50 µM | > 50 | 
FC(F)c1cc(-c2ccc(Cl)cc2)nc2c(C(=S)N3C[C@H]4CCCC[C@H]4C3)cnn12 | > 50 µM | > 50 | 
O=C(Nc1ccc(S(=O)(=O)NC2CC2)cc1)c1cnn2c(C(F)F)cc(-c3ccc(Cl)cc3)nc12 | 10.5 µM | > 50 | 
Cc1nn(Cc2ccccc2Cl)c(C)c1CN(C)CC(O)COc1ccc(Cl)cc1 (stereo not drawn) |  |  | IC50 [4]: 18.7 µM
O=C(c1cnn2c(C(F)F)cc(-c3ccc(Cl)cn3)nc12)N1C[C@H]2CCCC[C@H]2C1 | 11.8 µM | > 50 | 
O=C(c1cnn2c(O)cc(-c3ccc(Cl)cc3)nc12)N1CCC2(CC1)OCCO2 | > 50 µM | > 50 | 
CC(C)(C)OC(=O)NC1CCN(C(=O)c2cnn3c(C(F)F)cc(-c4ccc(Cl)cc4)nc23)CC1 | 24 µM | 45.9 | 
